Test results from PMC7714403 (JCI Insight, 2020).
Read-outs that look alike come from different tables or passages of the source.

Columns and labels:
Test in all cases: KiNativ, MOLM13 live cells
Assay type in all cases: cell-based
[1] = biological target: PAK2 (Homo sapiens, UniProt Q13177); conditions: MOLM-13, 2 h, 100 nM
Procedure: (§1) Samples were analyzed by KiNativ in situ kinase profiling by ActivX Biosciences.

[2] = biological target: PCTAIRE2 (Homo sapiens, UniProt Q00537); conditions: MOLM-13; 100 nM, 2 hours; Lys2; read-out: Inhibition vs DMSO
Procedure: as §1

[3] = biological target: PRPK (Homo sapiens, UniProt Q96S44); conditions: MOLM-13; 100 nM, 2 hours; ATP Loop; read-out: Inhibition vs DMSO
Procedure: as §1

[4] = biological target: NLK (Homo sapiens, UniProt Q9UBE8); conditions: MOLM-13; 100 nM, 2 hours; Lys2; read-out: Inhibition vs DMSO
NLK, sequence (Q9UBE8 whole entry): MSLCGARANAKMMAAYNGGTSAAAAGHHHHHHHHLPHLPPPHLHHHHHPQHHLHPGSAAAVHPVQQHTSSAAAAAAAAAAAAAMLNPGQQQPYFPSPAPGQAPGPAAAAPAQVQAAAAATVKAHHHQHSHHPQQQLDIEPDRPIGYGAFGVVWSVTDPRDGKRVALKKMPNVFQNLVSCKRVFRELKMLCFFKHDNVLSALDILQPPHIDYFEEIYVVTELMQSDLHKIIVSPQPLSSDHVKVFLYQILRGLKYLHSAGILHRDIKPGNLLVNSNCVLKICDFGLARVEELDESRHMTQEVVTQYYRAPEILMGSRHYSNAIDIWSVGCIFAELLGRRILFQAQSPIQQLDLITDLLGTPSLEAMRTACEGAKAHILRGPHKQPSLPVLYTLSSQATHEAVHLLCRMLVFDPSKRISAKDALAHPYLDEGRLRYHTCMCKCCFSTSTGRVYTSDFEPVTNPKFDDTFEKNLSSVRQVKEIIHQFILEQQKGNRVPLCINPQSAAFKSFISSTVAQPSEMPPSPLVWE
Procedure: as §1

[5] = biological target: T1, ULK1 (Homo sapiens, UniProt O75385); conditions: 100 nM, 2 hours; Lys2
T1 sequence (O75385 1-1050): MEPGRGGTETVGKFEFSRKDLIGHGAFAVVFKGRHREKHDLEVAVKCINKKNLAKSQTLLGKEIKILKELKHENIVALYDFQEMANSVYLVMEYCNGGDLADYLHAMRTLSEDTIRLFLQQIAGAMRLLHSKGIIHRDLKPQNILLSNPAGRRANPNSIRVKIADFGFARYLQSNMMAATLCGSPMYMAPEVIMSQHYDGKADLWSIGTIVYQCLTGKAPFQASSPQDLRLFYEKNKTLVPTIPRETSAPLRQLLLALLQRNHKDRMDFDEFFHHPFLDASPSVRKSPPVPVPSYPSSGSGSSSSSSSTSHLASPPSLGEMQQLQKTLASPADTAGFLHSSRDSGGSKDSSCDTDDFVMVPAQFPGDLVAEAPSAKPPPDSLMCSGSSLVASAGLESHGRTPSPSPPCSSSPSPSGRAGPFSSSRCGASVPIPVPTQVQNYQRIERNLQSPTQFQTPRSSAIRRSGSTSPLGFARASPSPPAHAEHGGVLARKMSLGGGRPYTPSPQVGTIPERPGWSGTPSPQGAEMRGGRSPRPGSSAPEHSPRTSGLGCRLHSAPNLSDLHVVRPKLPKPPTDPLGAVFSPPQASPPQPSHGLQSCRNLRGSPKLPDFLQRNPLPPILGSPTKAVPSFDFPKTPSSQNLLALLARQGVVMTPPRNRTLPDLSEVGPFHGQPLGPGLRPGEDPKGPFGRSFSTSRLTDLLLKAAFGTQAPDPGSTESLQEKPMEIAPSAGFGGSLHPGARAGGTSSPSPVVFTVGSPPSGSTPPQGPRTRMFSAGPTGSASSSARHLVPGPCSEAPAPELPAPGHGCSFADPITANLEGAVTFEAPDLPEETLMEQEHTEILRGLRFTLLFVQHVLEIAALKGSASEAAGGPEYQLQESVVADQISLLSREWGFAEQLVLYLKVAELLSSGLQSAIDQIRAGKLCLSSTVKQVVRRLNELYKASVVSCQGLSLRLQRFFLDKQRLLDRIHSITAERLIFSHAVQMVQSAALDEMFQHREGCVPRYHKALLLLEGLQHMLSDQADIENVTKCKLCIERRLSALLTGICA
Procedure: as §1

[6] = biological target: T2, MSK2 domain1 (Homo sapiens, UniProt O75676); conditions: MOLM-13, 2 h, 100 nM
T2 construct: MSK2 domain1
T2 sequence (O75676 whole entry, the tested form may be a part): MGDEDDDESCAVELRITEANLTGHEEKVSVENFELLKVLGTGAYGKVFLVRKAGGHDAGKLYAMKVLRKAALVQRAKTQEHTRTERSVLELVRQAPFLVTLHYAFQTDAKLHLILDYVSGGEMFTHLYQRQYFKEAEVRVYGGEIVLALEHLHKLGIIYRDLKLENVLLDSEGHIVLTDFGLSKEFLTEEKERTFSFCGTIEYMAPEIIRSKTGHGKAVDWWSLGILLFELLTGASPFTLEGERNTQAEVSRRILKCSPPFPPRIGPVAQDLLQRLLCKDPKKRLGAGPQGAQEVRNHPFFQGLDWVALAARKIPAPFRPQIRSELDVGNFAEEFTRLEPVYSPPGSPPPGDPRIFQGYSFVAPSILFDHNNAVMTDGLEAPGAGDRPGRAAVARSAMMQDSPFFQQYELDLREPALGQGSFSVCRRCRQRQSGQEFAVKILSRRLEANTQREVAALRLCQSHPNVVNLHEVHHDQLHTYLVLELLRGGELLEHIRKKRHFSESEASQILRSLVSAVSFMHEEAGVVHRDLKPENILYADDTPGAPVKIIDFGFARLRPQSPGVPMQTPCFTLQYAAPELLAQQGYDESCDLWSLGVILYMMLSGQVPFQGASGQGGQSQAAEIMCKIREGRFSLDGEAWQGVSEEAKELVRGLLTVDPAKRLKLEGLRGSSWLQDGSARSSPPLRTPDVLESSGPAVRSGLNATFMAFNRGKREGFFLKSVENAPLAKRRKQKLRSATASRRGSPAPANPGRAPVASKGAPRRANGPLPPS
Procedure: as §1

[7] = biological target: KSR1 (Homo sapiens, UniProt Q8IVT5); conditions: MOLM-13; 100 nM, 2 hours; Activation Loop; read-out: Inhibition vs DMSO
KSR1, sequence (Q8IVT5 whole entry): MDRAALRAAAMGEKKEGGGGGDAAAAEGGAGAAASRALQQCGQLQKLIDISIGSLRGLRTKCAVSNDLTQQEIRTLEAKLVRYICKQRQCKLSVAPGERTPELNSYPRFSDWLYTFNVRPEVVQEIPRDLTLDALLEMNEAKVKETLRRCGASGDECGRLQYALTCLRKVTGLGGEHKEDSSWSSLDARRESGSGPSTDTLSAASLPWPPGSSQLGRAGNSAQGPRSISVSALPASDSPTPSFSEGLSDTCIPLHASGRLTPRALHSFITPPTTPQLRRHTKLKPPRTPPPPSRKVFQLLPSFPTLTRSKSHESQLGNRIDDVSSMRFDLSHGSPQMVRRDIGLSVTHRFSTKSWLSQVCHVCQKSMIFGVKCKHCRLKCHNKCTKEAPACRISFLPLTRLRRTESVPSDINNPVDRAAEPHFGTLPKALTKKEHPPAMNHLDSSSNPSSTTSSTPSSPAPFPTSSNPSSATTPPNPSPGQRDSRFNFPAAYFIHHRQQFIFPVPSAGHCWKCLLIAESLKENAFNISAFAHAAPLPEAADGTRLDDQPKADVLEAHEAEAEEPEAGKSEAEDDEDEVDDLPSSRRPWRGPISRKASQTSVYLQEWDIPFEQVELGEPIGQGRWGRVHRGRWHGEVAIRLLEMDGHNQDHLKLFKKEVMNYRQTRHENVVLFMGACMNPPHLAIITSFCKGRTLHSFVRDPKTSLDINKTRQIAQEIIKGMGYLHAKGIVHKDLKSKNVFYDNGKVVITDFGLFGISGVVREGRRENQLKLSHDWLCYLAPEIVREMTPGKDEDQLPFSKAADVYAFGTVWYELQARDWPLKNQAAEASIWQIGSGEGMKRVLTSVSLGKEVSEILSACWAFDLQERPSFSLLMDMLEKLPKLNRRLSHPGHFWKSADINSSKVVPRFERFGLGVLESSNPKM
Procedure: as §1

[8] = biological target: T3, MAP2K4 (Homo sapiens, UniProt P45985); conditions: MOLM-13, 2 h, 100 nM
T3 sequence (P45985 1-399): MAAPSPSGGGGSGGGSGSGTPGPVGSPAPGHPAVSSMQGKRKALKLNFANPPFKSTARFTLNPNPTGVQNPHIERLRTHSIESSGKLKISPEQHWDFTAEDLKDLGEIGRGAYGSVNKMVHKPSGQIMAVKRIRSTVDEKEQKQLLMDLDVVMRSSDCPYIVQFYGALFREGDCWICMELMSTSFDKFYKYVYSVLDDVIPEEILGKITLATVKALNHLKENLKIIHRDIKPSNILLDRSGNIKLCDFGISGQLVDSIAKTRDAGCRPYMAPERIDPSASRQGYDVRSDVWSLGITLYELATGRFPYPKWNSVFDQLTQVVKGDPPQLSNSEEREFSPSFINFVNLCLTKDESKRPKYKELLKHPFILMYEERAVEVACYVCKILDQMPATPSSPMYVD
Procedure: as §1

[9] = biological target: T4, MLKL (Homo sapiens, UniProt Q8NB16); conditions: MOLM-13, 2 h, 100 nM
T4 sequence (Q8NB16 1-471): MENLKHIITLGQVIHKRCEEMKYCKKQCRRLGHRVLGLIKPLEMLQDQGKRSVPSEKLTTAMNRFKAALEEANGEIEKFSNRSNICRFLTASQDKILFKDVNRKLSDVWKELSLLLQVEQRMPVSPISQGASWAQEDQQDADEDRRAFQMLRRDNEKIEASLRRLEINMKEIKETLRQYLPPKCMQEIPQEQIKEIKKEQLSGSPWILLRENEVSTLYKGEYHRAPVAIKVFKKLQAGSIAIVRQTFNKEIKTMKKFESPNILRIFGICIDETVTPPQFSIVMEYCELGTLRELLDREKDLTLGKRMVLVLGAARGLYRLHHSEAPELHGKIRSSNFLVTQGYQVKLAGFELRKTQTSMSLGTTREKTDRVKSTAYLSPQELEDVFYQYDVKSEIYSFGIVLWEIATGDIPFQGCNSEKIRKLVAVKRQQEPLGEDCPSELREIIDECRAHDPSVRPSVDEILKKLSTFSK
Procedure: as §1

[10] = biological target: T5, GCN2 domain2 (Homo sapiens, UniProt Q9P2K8); conditions: MOLM-13, 2 h, 100 nM
T5 construct: GCN2 domain2
T5 sequence (Q9P2K8 whole entry, the tested form may be a part): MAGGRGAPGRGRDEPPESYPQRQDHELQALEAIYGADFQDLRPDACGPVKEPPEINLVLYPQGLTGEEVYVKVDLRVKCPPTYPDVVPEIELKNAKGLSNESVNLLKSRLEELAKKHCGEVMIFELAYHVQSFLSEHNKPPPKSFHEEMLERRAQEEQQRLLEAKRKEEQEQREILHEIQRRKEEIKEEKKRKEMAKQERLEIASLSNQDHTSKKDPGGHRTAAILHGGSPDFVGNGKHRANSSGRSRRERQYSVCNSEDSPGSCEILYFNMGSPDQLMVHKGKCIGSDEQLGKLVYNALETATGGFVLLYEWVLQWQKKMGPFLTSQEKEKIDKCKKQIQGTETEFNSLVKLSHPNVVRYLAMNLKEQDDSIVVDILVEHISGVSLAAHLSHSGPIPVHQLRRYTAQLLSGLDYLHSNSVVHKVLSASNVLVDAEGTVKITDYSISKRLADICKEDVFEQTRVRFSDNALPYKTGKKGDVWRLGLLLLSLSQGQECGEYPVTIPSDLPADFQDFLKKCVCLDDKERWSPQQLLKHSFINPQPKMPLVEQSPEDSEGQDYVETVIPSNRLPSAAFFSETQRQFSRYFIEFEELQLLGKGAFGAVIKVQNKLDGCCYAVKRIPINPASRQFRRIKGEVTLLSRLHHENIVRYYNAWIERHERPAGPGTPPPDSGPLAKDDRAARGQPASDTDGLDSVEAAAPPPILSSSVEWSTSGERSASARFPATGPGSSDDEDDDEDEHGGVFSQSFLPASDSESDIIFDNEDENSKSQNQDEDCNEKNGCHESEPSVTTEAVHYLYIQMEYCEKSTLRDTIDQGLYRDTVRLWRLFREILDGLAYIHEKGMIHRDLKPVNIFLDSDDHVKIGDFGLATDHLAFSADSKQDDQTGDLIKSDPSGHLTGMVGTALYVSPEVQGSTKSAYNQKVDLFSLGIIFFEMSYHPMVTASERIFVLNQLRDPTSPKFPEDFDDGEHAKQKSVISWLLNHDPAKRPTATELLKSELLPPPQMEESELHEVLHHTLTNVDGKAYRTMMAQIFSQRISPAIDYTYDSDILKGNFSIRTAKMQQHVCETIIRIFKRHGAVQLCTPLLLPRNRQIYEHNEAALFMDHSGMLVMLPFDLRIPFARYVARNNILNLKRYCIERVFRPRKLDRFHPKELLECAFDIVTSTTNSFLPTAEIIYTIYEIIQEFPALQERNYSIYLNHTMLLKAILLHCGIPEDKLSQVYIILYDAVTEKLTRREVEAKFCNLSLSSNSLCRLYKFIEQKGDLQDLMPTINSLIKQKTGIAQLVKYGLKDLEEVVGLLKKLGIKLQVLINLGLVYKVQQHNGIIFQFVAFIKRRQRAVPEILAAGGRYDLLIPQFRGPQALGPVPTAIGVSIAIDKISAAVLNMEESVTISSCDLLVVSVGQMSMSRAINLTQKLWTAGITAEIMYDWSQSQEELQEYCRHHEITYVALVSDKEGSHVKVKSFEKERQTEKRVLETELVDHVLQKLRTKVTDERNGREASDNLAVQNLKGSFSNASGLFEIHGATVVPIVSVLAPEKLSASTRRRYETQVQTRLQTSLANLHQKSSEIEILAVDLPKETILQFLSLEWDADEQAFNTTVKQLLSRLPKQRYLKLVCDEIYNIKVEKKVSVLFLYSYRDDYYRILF
Procedure: as §1

[11] = biological target: p38b (Homo sapiens, UniProt Q15759); conditions: MOLM-13; 100 nM, 2 hours; Other; read-out: Inhibition vs DMSO
Procedure: as §1

[12] = biological target: CSK (Homo sapiens, UniProt P41240); conditions: 100 nM, 2 hours; Activation Loop
CSK, sequence (P41240 whole entry): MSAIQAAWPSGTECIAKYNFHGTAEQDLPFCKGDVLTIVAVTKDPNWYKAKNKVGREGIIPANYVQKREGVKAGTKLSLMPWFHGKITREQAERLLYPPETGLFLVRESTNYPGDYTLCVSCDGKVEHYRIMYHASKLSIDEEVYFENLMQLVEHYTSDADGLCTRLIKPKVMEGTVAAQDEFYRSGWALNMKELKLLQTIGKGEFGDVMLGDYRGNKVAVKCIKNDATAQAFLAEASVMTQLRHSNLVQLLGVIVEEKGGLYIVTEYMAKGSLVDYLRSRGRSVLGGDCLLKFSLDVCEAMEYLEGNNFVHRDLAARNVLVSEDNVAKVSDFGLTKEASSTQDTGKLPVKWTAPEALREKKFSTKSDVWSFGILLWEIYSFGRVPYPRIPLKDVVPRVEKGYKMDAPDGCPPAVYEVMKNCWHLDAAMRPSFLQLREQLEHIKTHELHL
Procedure: as §1

[13] = Lys1, read-out: Inhibition vs DMSO
[14] = Lys2, read-out: Inhibition vs DMSO
[15] = Activation Loop, read-out: Inhibition vs DMSO

PAK2, sequence (Q13177 whole entry): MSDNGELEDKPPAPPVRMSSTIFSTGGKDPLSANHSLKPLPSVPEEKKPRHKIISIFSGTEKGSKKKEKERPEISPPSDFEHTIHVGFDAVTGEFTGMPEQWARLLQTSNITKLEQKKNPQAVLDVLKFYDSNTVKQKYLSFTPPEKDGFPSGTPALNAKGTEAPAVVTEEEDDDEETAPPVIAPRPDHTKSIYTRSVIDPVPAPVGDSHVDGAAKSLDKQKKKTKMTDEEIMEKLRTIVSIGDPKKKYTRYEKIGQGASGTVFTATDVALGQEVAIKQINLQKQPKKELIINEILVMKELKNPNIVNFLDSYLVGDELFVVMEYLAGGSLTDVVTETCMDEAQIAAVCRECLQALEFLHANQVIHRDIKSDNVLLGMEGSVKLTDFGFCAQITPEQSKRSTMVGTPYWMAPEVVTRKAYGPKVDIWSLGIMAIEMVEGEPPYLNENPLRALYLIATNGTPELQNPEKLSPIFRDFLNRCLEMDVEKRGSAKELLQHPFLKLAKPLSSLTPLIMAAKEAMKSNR

## CN1CCN(Cc2ccc(Nc3ncc(Cl)c(Nc4ccccc4S(=O)(=O)N(C)C)n3)cc2)CC1 [TP-0903]
[1]; [13]
  inhibition at 0.1 µM: -46.5%
[1]; Other, read-out: Inhibition vs DMSO
  inhibition at 0.1 µM: -26.6%
[2]
  inhibition at 0.1 µM: 20.4%
[3]
  inhibition at 0.1 µM: 29.4%
[4]
  inhibition at 0.1 µM: -30.4%
[5]
  Inhibition vs DMSO: 45.8%
[6]; [13]
  inhibition at 0.1 µM: 13.3%
[6]; [14]
  inhibition at 0.1 µM: 26.8%
[7]
  inhibition at 0.1 µM: -11%
[8]; [15]
  inhibition at 0.1 µM: 4.3%
[8]; [13]
  inhibition at 0.1 µM: -38.6%
[8]; [14]
  inhibition at 0.1 µM: 4.1%
[9]; [15]
  inhibition at 0.1 µM: -29%
[9]; [13]
  inhibition at 0.1 µM: -26.9%
[9]; Protein Kinase Domain, read-out: Inhibition vs DMSO
  inhibition at 0.1 µM: -65.7%
[10]; [13]
  inhibition at 0.1 µM: -22.2%
[10]; [14]
  inhibition at 0.1 µM: -33.5%
[11]
  inhibition at 0.1 µM: -5%
[12]
  Inhibition vs DMSO: -5.0%
